The source of these data is US12441726B2, “Compounds and uses thereof” (Foghorn Therapeutics Inc., priority 2020, dated 2025).

In one assay the target is BRM (Homo sapiens, UniProt P51531). As to the kind of experiment: ATPase catalytic activity assay (ADP-Glo), BRM. As to conditions: 30 nM BRM, 400 μM ATP; for IC50: BRM ATPase: IC50 (uM). For orientation: ADP-Glo first removes unused ATP, then detects ADP through luciferase.
In the next assay the target is BRG-1 (Homo sapiens, UniProt P51532). Put plainly: ATPase catalytic activity assay (ADP-Glo), BRG-1. To be noted: for Emax: 1 h, read-out: BRG1 Max % Inhibition, ADP-Glo, 30 nM BRG-1, 400 μM ATP.
BRG-1, sequence (P51532 whole entry): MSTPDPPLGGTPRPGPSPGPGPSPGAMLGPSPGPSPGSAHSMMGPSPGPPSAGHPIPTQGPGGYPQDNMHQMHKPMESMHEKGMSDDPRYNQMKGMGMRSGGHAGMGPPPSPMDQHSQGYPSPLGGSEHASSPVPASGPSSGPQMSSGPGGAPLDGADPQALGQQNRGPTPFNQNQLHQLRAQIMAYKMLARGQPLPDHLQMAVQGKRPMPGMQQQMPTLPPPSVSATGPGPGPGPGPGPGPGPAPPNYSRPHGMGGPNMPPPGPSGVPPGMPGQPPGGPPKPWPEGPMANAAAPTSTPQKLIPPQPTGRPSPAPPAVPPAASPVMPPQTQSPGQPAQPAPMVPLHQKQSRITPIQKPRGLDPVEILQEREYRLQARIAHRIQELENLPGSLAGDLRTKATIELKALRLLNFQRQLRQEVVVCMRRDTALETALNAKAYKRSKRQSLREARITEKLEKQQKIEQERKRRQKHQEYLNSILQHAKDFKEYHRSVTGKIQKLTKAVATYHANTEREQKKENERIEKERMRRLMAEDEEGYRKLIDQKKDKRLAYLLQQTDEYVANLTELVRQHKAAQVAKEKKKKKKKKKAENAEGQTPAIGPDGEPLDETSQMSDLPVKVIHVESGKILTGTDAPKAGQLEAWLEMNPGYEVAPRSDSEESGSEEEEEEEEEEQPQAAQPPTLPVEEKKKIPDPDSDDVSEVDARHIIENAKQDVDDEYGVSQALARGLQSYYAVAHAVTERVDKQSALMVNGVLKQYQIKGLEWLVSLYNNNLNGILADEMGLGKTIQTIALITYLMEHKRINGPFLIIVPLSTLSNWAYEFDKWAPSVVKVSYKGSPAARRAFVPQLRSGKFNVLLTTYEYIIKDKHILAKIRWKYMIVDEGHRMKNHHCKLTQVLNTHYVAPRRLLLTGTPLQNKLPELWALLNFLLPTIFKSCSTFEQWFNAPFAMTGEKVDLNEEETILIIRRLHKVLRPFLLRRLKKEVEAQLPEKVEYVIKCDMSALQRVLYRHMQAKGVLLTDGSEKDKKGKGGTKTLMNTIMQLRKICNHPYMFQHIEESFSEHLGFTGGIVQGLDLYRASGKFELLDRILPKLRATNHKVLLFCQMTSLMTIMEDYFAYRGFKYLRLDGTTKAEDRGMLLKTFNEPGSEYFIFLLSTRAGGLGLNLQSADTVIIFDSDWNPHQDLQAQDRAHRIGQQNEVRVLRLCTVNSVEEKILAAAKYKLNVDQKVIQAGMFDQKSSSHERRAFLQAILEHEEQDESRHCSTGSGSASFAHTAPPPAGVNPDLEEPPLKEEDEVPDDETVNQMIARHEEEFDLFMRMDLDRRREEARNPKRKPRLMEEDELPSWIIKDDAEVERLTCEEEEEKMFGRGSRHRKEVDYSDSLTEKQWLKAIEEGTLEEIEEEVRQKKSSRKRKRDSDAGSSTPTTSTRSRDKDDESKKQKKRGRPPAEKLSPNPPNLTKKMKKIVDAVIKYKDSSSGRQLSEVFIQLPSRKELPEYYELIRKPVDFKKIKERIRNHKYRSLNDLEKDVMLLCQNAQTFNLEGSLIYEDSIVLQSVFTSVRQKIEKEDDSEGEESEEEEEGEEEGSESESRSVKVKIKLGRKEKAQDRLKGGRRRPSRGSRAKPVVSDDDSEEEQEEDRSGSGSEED

BRM, sequence (P51531 whole entry): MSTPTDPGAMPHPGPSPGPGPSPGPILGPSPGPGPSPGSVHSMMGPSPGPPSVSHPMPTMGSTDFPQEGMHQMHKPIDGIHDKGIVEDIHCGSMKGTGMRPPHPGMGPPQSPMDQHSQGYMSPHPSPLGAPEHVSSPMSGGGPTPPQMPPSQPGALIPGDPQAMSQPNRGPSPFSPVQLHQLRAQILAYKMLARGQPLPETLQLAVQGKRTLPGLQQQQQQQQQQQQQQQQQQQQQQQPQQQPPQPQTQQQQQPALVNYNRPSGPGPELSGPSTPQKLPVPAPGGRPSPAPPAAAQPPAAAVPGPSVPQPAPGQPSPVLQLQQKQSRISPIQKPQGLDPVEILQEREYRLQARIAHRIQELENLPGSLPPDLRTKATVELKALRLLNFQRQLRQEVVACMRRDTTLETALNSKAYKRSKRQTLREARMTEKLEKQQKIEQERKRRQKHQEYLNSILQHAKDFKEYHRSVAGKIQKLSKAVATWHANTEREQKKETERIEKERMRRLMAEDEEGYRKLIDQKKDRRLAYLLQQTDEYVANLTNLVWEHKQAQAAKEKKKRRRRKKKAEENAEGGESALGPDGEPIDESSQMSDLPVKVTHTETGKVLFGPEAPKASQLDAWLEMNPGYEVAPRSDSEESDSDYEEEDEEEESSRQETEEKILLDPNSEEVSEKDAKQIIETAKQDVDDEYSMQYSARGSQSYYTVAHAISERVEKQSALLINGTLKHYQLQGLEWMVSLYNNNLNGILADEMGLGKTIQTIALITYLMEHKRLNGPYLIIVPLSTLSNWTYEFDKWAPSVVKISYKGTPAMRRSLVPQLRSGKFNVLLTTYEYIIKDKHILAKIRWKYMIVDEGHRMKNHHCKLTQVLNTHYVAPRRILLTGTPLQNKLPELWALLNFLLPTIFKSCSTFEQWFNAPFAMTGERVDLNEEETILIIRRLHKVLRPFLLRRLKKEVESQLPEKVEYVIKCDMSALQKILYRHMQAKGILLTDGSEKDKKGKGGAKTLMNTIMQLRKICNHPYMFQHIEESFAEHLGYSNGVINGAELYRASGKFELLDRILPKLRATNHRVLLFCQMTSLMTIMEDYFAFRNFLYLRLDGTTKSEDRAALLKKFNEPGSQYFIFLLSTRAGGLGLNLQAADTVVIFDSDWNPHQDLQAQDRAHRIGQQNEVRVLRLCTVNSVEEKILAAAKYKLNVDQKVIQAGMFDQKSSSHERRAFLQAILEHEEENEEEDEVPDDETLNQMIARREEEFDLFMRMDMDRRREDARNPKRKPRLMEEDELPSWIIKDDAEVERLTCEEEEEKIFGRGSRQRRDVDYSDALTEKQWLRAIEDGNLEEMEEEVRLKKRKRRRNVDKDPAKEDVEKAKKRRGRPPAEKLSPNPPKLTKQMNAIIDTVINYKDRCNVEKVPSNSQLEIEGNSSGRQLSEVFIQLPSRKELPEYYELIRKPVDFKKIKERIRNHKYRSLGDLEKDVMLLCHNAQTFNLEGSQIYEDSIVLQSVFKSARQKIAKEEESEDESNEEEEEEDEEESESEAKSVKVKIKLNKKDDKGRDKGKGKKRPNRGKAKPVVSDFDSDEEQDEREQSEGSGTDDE
Experimental for BRM: The ATPase catalytic activity of BRM or BRG-1 was measured by an in vitro biochemical assay using ADP-Glo™ (Promega, V9102). The ADP-Glo™ kinase assay is performed in two steps once the reaction is complete. The first step is to deplete any unconsumed ATP in the reaction. The second step is to convert the reaction product ADP to ATP, which will be utilized by the luciferase to generate luminesce and be detected by a luminescence reader, such as Envision.
Then following addition of 5 μL of ADP-Glo™ Reagent provided in the kit, the reaction incubates at room temperature for 40 minutes. Then 10 μL of Kinase Detection Reagent provided in the kit is added to convert ADP to ATP, and the reaction incubates at room temperature for 60 minutes. Finally, luminescence measurement is collected with a plate-reading luminometer, such as Envision.

Regarding `C[C@@]1(C#N)COCc2ccc(C(=O)NCc3cc4nc(-c5ccccc5)sc4cn3)cc21` [Compound 124], on BRM, the “BRM Max % Inhibition” value is on record as 97% and the IC50 was under 0.1 µM. Moreover, at BRG-1, the concentration for half-maximal inhibition (IC50) is over 1000 nM and the Emax was found to be 98%.

As to `C[C@@]1(C#N)COCc2ccc(C(=O)NCc3cc4nc(-c5ccc(N6CCC6)cc5)ccc4cn3)cc21` [Compound 125], at BRM, the “BRM Max % Inhibition” value was found to be 98% and the IC50 is 0.1 to 0.5 µM. Also, on BRG-1, the half-inhibitory concentration (IC50) is 500 to 1000 nM and the Emax was 86%.

`C[C@@]1(C#N)COCc2ccc(C(=O)NCc3cc4nc(-c5cccc(N6CCC6)c5)ccc4cn3)cc21` [Compound 126]: on BRM, the “BRM Max % Inhibition” value turned out to be 95% and the IC50 was in the range of 0.1 to 0.5 µM. In addition, on BRG-1, the IC50 was over 1000 nM and the Emax was found to be 51%.

Take `COc1cc(C2CCC2)ccc1-c1ccc2cnc(CNC(=O)c3ccc4c(c3)[C@](C)(C#N)COC4)cc2n1` [Compound 127]: on BRM, the “BRM Max % Inhibition” value amounted to 96% and the IC50 is under 0.1 µM. Further, at BRG-1, the IC50 was 500 to 1000 nM and the Emax came out at 74%.

Regarding `COCCN1CCC(c2cccc(-c3ccc4cnc(CNC(=O)c5ccc6c(c5)[C@](C)(C#N)COC6)cc4n3)n2)CC1` [Compound 128], on BRM, the “BRM Max % Inhibition” value is 82% and the IC50 lay in the range of 0.1 to 0.5 µM. Also, on BRG-1, the IC50 was over 1000 nM and the Emax is 39%.

Regarding `Cc1cc2c(-c3ccc4cnc(CNC(=O)c5ccc6c(c5)[C@](C)(C#N)COC6)cc4n3)ccc(F)c2n1C` [Compound 129], at BRM, the “BRM Max % Inhibition” value was 100% and the half-inhibitory concentration (IC50) is under 0.1 µM. For the same molecule, at BRG-1, the half-maximal inhibitory concentration (IC50) is under 100 nM and the Emax came to 98%.

Turning to `C[C@@]1(C#N)COCc2ccc(C(=O)NCc3ncc4ccc(-c5cncc(C6CC6)n5)nc4c3F)cc21` [Compound 130], on BRM, the “BRM Max % Inhibition” value came out at 97% and the IC50 was under 0.1 µM. Further, at BRG-1, the half-inhibitory concentration (IC50) is 100 to 500 nM and the Emax came out at 90%.

As to `CN1CCC(c2cccc(-c3ccc4cnc(CNC(=O)c5ccc6c(c5)[C@](C)(C#N)COC6)cc4n3)n2)CC1` [Compound 131], at BRM, the “BRM Max % Inhibition” value came to 83% and the half-maximal inhibitory concentration (IC50) is 0.1 to 0.5 µM. In addition, at BRG-1, the IC50 is over 1000 nM and the Emax amounted to 25%.

In the case of `COCCN1CCN(c2cccc(-c3ccc4cnc(CNC(=O)c5ccc6c(c5)[C@](C)(C#N)COC6)cc4n3)n2)CC1` [Compound 132], on BRM, the “BRM Max % Inhibition” value came out at 97% and the half-inhibitory concentration (IC50) lay within 0.1 to 0.5 µM. Moreover, on BRG-1, the concentration for half-maximal inhibition (IC50) fell in the range of 500 to 1000 nM and the Emax came out at 71%.

Turning to `COCCn1c(C)cc2c(-c3ccc4cnc(CNC(=O)c5ccc6c(c5)[C@](C)(C#N)COC6)cc4n3)cccc21` [Compound 133], at BRM, the “BRM Max % Inhibition” value is listed as 102% and the half-inhibitory concentration (IC50) was under 0.1 µM. In addition, at BRG-1, the IC50 was under 100 nM and the Emax stood at 98%.

As for `CCc1cc2c(-c3ccc4cnc(CNC(=O)c5ccc6c(c5)[C@](C)(C#N)COC6)cc4n3)cccc2n1C` [Compound 134], at BRM, the “BRM Max % Inhibition” value was 101% and the IC50 is under 0.1 µM. Besides, at BRG-1, the half-inhibitory concentration (IC50) is under 100 nM and the Emax worked out at 97%.

As to `Cn1c(C2CC2)cc2c(-c3ccc4cnc(CNC(=O)c5ccc6c(c5)[C@](C)(C#N)COC6)cc4n3)cccc21` [Compound 135], on BRM, the “BRM Max % Inhibition” value amounted to 103% and the IC50 is under 0.1 µM. Further, at BRG-1, the IC50 is under 100 nM and the Emax was 98%.

For the molecule `C[C@@]1(C#N)COCc2ccc(C(=O)NCc3cc4nc(-c5cn(C6COC6)nc5CC(F)F)ccc4cn3)cc21` [Compound 136], at BRM, the “BRM Max % Inhibition” value was 83% and the IC50 was 0.1 to 0.5 µM. Besides, at BRG-1, the IC50 was over 1000 nM and the Emax was found to be 25%.

Turning to `CC1(c2nccc(-c3ccc4cnc(CNC(=O)c5ccc6c(c5)[C@](C)(C#N)COC6)cc4n3)n2)COC1` [Compound 137], on BRM, the “BRM Max % Inhibition” value is recorded as 88% and the IC50 was 0.1 to 0.5 µM. For the same molecule, at BRG-1, the half-maximal inhibitory concentration (IC50) is over 1000 nM and the Emax was 39%.

With `Cn1cc(F)c2c(-c3ccc4cnc(CNC(=O)c5ccc6c(c5)[C@](C)(C#N)COC6)cc4n3)cccc21` [Compound 138], on BRM, the “BRM Max % Inhibition” value amounted to 101% and the IC50 was under 0.1 µM. In addition, on BRG-1, the half-maximal inhibitory concentration (IC50) lay in the range of 100 to 500 nM and the Emax is 94%.

For `Cn1c(C(F)F)cc2c(-c3ccc4cnc(CNC(=O)c5ccc6c(c5)[C@](C)(C#N)COC6)cc4n3)cccc21` [Compound 139], at BRM, the “BRM Max % Inhibition” value is 100% and the half-maximal inhibitory concentration (IC50) is under 0.1 µM. At BRG-1, the half-maximal inhibitory concentration (IC50) fell in the range of 100 to 500 nM and the Emax came out at 94%.

For `COc1nn(C2CC2(F)F)cc1-c1ccc2cnc(CNC(=O)c3ccc4c(c3)[C@](C)(C#N)COC4)cc2n1` (stereo partly shown) [Compound 140], at BRM, the “BRM Max % Inhibition” value worked out at 94% and the IC50 lay within 0.1 to 0.5 µM. Besides, on BRG-1, the IC50 fell in the range of 500 to 1000 nM and the Emax stood at 48%.

With `COCc1cc2c(-c3ccc4cnc(CNC(=O)c5ccc6c(c5)[C@](C)(C#N)COC6)cc4n3)cccc2n1C` [Compound 141], at BRM, the “BRM Max % Inhibition” value is 100% and the concentration for half-maximal inhibition (IC50) was under 0.1 µM. Further, at BRG-1, the IC50 was in the range of 100 to 500 nM and the Emax worked out at 96%.

For the molecule `C[C@@]1(C#N)COCc2ccc(C(=O)NCc3cc4cc(-n5cc(F)c(N6CCC6)n5)ccc4nn3)cc21` [Compound 142], on BRM, the “BRM Max % Inhibition” value turned out to be 98% and the IC50 was under 0.1 µM. In addition, on BRG-1, the IC50 lay within 100 to 500 nM and the Emax was found to be 88%.

`C[C@@]1(F)COCc2ccc(C(=O)NCc3cc4nc(-c5cccc(N6CCCC6=O)n5)cnc4cn3)cc21` [Compound 143]: at BRM, the “BRM Max % Inhibition” value turned out to be 103% and the 50% inhibitory concentration (IC50) was under 0.1 µM. In addition, on BRG-1, the concentration for half-maximal inhibition (IC50) was in the range of 100 to 500 nM and the Emax was 89%.

As for `COc1cc(C)ccc1-c1ccc2cnc(CNC(=O)c3ccc4c(c3)[C@](C)(C#N)COC4)cc2n1` [Compound 144], at BRM, the “BRM Max % Inhibition” value came out at 102% and the half-inhibitory concentration (IC50) was under 0.1 µM. For the same molecule, on BRG-1, the IC50 lay in the range of 100 to 500 nM and the Emax was found to be 95%.

Take `C[C@@]1(C#N)COCc2ccc(C(=O)NCc3cc4nc(-c5cn(C6COC6)nc5C(F)F)ccc4cn3)cc21` [Compound 145]: at BRM, the “BRM Max % Inhibition” value turned out to be 94% and the IC50 lay in the range of 0.1 to 0.5 µM. For the same molecule, at BRG-1, the IC50 lay in the range of 500 to 1000 nM and the Emax came to 65%.

Turning to `COc1cc(N2CCC2)ccc1-c1ccc2cnc(CNC(=O)c3ccc4c(c3)[C@](C)(C#N)COC4)cc2n1` [Compound 146], on BRM, the “BRM Max % Inhibition” value was found to be 98% and the IC50 fell in the range of 0.1 to 0.5 µM. For the same molecule, on BRG-1, the half-inhibitory concentration (IC50) is 100 to 500 nM and the Emax turned out to be 80%.

As to `C[C@@]1(C#N)COCc2ccc(C(=O)NCc3cc4nc(-c5cccc6c5ccn6CC(F)F)ccc4cn3)cc21` [Compound 147], at BRM, the “BRM Max % Inhibition” value is given as 101% and the concentration for half-maximal inhibition (IC50) was under 0.1 µM. Moreover, at BRG-1, the IC50 fell in the range of 100 to 500 nM and the Emax was 90%.

In the case of `COc1cc(C(C)(C)C)ccc1-c1ccc2cnc(CNC(=O)c3ccc4c(c3)[C@](C)(C#N)COC4)cc2n1` [Compound 148], on BRM, the “BRM Max % Inhibition” value worked out at 90% and the IC50 lay in the range of 0.1 to 0.5 µM. At BRG-1, the IC50 was over 1000 nM and the Emax was 32%.

In the case of `CN1CCCc2c(-c3ccc4cnc(CNC(=O)c5ccc6c(c5)[C@](C)(C#N)COC6)cc4n3)cccc21` [Compound 149], on BRM, the “BRM Max % Inhibition” value is given as 95% and the IC50 was in the range of 0.1 to 0.5 µM. For the same molecule, at BRG-1, the 50% inhibitory concentration (IC50) lay within 500 to 1000 nM and the Emax was 67%.

As for `Cn1cc2c(-c3ccc4cnc(CNC(=O)c5ccc6c(c5)[C@](C)(C#N)COC6)cc4n3)cccc2n1` [Compound 151], at BRM, the “BRM Max % Inhibition” value is 93% and the half-inhibitory concentration (IC50) was in the range of 0.1 to 0.5 µM. For the same molecule, on BRG-1, the IC50 is 500 to 1000 nM and the Emax is 56%.

For `COc1ccc(C)cc1-c1ccc2cnc(CNC(=O)c3ccc4c(c3)[C@](C)(C#N)COC4)cc2n1` [Compound 153], on BRM, the “BRM Max % Inhibition” value is given as 87% and the IC50 lay within 0.1 to 0.5 µM. At BRG-1, the IC50 was over 1000 nM and the Emax was found to be 37%.

Take `C[C@@]1(C#N)COCc2ccc(C(=O)NCc3cc4nc(-c5cn(C6COC6)nc5OC(F)F)ccc4cn3)cc21` [Compound 154]: on BRM, the “BRM Max % Inhibition” value was found to be 101% and the concentration for half-maximal inhibition (IC50) was under 0.1 µM. At BRG-1, the IC50 is 100 to 500 nM and the Emax was determined as 95%.

Take `COc1cc(N2CCOCC2)ccc1-c1ccc2cnc(CNC(=O)c3ccc4c(c3)[C@](C)(C#N)COC4)cc2n1` [Compound 155]: on BRM, the “BRM Max % Inhibition” value was 96% and the IC50 lay in the range of 0.1 to 0.5 µM. Further, on BRG-1, the concentration for half-maximal inhibition (IC50) is 500 to 1000 nM and the Emax was found to be 67%.

Turning to `COc1cc(Cl)ccc1-c1ccc2cnc(CNC(=O)c3ccc4c(c3)[C@](C)(C#N)COC4)cc2n1` [Compound 156], at BRM, the “BRM Max % Inhibition” value was 99% and the IC50 is under 0.1 µM. On BRG-1, the IC50 lay within 100 to 500 nM and the Emax came to 97%.

Regarding `COc1cc(C(F)F)ccc1-c1ccc2cnc(CNC(=O)c3ccc4c(c3)[C@](C)(C#N)COC4)cc2n1` [Compound 157], on BRM, the “BRM Max % Inhibition” value is reported as 99% and the concentration for half-maximal inhibition (IC50) is under 0.1 µM. Besides, at BRG-1, the IC50 was in the range of 100 to 500 nM and the Emax is 96%.

For the molecule `C[C@@]1(C#N)COCc2ccc(C(=O)NCc3cc4nc(-c5ccnc(C6COC6)n5)ccc4cn3)cc21` [Compound 158], at BRM, the “BRM Max % Inhibition” value is on record as 96% and the IC50 was in the range of 0.1 to 0.5 µM. Also, on BRG-1, the IC50 lay within 500 to 1000 nM and the Emax amounted to 75%.

For the molecule `C[C@@]1(C#N)COCc2ccc(C(=O)NCc3cc4nc(-c5cccc6c5ccn6CCO)ccc4cn3)cc21` [Compound 159], at BRM, the “BRM Max % Inhibition” value is 99% and the half-inhibitory concentration (IC50) was under 0.1 µM. Further, on BRG-1, the IC50 was 100 to 500 nM and the Emax came out at 95%.

As usually defined, the IC50 is the concentration that gives 50% inhibition.
